# System: resistant variants of P. aeruginosa
# Experiment: microbe, parasite or virus in culture
# Format: cell-based
# Conditions: Pseudomonas aeruginosa, ATCC15442
# Source text: E. coli ATCC25922, P. aeruginosa ATCC27853, S. aureus ATCC29213, S. epidermidis ATCC12228, S. faecalis ATCC29212 and B. subtilis CMCC63501 were obtained from the College of Veterinary Medicine, Northeast Agricultural University (Harbin, China), E. coli K88, E. coli CVCC1515 and P. aeruginosa ATCC15442 were bestowed by Prof. J.H. Wang (Gene Engineering Laboratory, Feed Research Institute, Chinese Academy of Agricultural Sciences Beijing, China) and E. coli UB1005 was kindly provided by Prof. Q.S. Qi (State Key Laboratory of Microbial Technology, Shandong University, China). […] Briefly, 50 µl of approximate 0.5–1 × 10^6 colony forming units (CFU)/ml of cells were diluted in Mueller-Hinton broth and distributed to 96-well plate, 50 µl of twofold peptides were added and the plates was incubated at 37°C for 18–24 h. The MIC values were calculated as the lowest peptide concentration that prevented visible turbidity and negative control of the pure broth without microbes. The tests were performed at least three times in duplicate.
structure (smiles),measurement,value
CNC(C)C1CCC(N)C(OC2C(N)CC(N)C(OC3OCC(C)(O)C(NC)C3O)C2O)O1 (stereo not shown) [gentamicin],MIC,> 256 µM

# Reference: article PMC4063695, “Design of Embedded-Hybrid Antimicrobial Peptides with Enhanced Cell Selectivity and Anti-Biofilm Activity” (PLoS ONE, 2014)
